From ChEMBL document CHEMBL1145605, “Novel 2-imidazoles as potent and selective alpha1A adrenoceptor partial agonists” (Bioorg Med Chem Lett, 2008) come the findings set out here.

Bounds are passed on as bounds.

Data set [1] addresses T1, Alpha-1D adrenergic receptor (Homo sapiens) (UniProt P25100).
T1 sequence (whole entry): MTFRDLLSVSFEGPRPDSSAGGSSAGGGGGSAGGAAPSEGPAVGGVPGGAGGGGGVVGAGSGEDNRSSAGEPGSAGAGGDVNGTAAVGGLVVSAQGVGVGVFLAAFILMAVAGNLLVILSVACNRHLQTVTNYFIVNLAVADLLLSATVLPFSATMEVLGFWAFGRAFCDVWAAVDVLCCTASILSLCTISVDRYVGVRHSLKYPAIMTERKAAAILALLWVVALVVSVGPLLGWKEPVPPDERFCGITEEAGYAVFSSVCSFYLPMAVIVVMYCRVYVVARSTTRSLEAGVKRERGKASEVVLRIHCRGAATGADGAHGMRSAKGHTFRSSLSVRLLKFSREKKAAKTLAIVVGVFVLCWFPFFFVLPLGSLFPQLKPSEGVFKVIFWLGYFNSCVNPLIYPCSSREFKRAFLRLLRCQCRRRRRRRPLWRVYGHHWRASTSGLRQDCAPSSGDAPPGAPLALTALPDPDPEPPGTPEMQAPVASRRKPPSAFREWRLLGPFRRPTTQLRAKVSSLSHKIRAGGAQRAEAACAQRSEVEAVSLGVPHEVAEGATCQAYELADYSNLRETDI
Put plainly: Agonist activity at human cloned adrenergic Alpha-1D receptor expressed in CHO cells assessed as calcium mobilization by FLIPR relative to phenylephrine. It is filed as functional, cell-based. (In general: Calcium assays in cells follow changes in intracellular calcium, usually with a dye or a luminescent sensor.)

In data set [2] the target is T2, Alpha-1A adrenergic receptor (Homo sapiens) (UniProt P35348).
T2 sequence (whole entry): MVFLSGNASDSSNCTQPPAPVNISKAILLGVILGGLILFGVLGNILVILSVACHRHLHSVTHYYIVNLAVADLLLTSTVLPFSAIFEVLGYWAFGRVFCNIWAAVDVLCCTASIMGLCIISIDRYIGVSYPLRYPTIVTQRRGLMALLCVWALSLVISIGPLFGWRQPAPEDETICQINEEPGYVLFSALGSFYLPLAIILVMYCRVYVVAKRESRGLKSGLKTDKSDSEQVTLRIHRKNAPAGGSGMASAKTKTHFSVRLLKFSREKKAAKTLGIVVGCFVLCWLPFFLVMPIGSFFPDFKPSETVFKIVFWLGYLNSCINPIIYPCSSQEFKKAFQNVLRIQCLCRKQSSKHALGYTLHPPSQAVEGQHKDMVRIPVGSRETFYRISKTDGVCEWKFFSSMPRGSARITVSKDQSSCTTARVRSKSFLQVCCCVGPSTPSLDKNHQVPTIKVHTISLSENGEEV
Put plainly: Agonist activity at human cloned adrenergic alpha-1A receptor expressed in CHO cells assessed as calcium mobilization by FLIPR relative to phenylephrine. The format is functional, cell-based.

In data set [3] the target is T3, Alpha-1B adrenergic receptor (Homo sapiens) (UniProt P35368).
T3 sequence (whole entry): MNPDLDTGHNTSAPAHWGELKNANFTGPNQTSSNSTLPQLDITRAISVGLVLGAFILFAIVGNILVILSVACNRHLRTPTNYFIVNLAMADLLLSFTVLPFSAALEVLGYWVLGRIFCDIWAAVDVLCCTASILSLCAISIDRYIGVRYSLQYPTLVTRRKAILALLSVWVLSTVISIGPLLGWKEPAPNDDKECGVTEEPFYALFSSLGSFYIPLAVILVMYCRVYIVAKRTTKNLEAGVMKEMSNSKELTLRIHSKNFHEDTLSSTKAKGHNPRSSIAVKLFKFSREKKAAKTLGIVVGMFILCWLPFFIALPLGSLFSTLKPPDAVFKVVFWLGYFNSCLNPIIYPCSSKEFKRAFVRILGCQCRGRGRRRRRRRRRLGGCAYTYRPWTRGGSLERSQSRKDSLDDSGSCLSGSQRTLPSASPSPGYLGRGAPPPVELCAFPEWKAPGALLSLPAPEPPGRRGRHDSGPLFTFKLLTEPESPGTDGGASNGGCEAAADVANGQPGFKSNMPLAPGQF
The data set can be described thus: Agonist activity at human cloned adrenergic Alpha-1B receptor expressed in CHO cells assessed as calcium mobilization by FLIPR relative to phenylephrine. The format is functional, cell-based.

The target in data set [4] is T4, Alpha-2A adrenergic receptor (Homo sapiens) (UniProt P08913).
T4 sequence (whole entry): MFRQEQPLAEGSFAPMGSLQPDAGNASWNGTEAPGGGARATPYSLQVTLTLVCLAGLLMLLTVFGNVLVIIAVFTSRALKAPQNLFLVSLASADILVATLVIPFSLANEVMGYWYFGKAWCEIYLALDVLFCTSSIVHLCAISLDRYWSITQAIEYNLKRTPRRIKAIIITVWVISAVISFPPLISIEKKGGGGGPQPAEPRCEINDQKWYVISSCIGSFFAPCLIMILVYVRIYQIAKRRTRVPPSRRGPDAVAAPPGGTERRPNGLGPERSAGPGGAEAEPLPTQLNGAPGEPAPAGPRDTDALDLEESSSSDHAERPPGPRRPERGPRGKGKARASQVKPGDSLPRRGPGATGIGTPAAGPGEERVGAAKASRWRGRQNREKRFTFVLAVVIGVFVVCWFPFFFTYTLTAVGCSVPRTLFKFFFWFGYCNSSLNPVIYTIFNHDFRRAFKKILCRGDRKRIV
Put plainly: Agonist activity at human cloned adrenergic alpha-2A receptor expressed in CHOK1 cells by beta-lactamase reporter gene assay relative to dexmeditomidine. It is filed as functional, cell-based. To be noted: CHO-K1. On the technique in general: Reporter assays use an easily measured gene product as a stand-in for the process of interest.

The target of data set [5] is T5, Alpha-1B adrenergic receptor (Homo sapiens, UniProt P35368).
T5 sequence (P35368 whole entry): T3 sequence (whole entry)
Put plainly: Agonist activity at human cloned adrenergic alpha-1B receptor expressed in CHO cells assessed as calcium mobilization by FLIPR. It is filed as functional, cell-based.

Data set [6] deals with T6, Alpha-1A adrenergic receptor (Homo sapiens, UniProt P35348).
T6 sequence (P35348 whole entry): T2 sequence (whole entry)
Put plainly: Agonist activity at human cloned adrenergic alpha-1A receptor expressed in CHO cells assessed as calcium mobilization by FLIPR. The format is functional, cell-based.

Data set [7] has as its target T7, Alpha-1D adrenergic receptor (Homo sapiens, UniProt P25100).
T7 sequence (P25100 whole entry): T1 sequence (whole entry)
Put plainly: Agonist activity at human cloned adrenergic Alpha-1D receptor expressed in CHO cells assessed as calcium mobilization by FLIPR. It is filed as functional, cell-based.

Data set [8] has as its target T8, Alpha-2A adrenergic receptor (Homo sapiens, UniProt P08913).
T8 sequence (P08913 whole entry): T4 sequence (whole entry)
Put plainly: Agonist activity at human cloned adrenergic alpha-2A receptor expressed in CHOK1 cells by beta-lactamase reporter gene assay. The format is functional, cell-based, CHO-K1.

The next data set concerns the target CYP2C19 (Homo sapiens, UniProt P33261). Put plainly: Inhibition of CYP2C19 at 10 uM. It is filed as ADME.
Data set [9] deals with Voltage-gated inwardly rectifying potassium channel KCNH2 (Homo sapiens, UniProt Q12809). The data set can be described thus: Activity at human ERG at 10 uM.
Chain of Voltage-gated inwardly rectifying potassium channel KCNH2 (Q12809 whole entry): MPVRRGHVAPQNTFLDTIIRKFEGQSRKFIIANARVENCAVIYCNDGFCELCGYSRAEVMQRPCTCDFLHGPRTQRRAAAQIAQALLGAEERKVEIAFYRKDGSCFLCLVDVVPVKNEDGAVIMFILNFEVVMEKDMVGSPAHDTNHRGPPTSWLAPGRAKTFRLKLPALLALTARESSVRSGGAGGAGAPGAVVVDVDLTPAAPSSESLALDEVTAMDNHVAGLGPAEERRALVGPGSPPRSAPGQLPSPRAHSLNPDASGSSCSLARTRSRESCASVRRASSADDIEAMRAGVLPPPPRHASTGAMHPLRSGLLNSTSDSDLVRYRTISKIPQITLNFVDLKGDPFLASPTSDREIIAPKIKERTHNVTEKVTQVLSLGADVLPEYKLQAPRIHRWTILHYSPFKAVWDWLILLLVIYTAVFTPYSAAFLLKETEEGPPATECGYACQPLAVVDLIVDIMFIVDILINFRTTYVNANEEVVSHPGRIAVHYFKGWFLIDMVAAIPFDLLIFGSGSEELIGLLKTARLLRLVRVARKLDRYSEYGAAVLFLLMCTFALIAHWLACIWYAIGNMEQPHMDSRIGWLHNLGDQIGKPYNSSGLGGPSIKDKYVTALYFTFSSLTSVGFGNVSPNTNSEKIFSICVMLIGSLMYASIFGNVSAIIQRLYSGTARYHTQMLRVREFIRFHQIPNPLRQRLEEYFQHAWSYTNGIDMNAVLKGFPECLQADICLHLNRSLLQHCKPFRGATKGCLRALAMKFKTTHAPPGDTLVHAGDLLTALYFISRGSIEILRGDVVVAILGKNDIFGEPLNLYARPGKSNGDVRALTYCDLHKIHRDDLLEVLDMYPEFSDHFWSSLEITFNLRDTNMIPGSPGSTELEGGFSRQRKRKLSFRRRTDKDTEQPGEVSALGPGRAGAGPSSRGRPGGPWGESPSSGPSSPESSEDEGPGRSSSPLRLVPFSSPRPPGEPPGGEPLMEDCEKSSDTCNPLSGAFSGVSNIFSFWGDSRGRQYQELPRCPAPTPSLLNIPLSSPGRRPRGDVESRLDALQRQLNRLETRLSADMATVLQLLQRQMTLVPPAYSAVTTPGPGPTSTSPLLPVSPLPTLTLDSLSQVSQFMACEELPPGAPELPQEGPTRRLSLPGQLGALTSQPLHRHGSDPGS
The target of the next data set is CYP2C9 (Homo sapiens, UniProt P11712). The data set can be described thus: Inhibition of CYP2C9 at 10 uM. It is filed as ADME.
Chain of CYP2C9 (P11712 whole entry): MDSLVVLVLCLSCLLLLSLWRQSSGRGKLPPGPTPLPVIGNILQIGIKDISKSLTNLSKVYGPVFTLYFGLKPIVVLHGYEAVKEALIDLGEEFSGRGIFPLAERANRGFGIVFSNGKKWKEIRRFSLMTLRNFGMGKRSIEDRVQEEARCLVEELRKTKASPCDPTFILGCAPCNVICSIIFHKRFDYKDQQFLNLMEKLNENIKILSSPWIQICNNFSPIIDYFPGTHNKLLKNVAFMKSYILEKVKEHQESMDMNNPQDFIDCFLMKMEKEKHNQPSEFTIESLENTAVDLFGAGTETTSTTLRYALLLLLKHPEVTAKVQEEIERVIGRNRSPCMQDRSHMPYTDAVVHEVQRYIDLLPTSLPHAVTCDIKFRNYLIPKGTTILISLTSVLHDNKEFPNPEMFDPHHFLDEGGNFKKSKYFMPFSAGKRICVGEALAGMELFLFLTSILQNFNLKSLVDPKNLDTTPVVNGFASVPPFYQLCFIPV
For the next data set, the target named is CYP3A4 (Homo sapiens, UniProt P08684). Put plainly: Inhibition of CYP3A4 at 10 uM. It is filed as ADME.
Chain of CYP3A4 (P08684 whole entry): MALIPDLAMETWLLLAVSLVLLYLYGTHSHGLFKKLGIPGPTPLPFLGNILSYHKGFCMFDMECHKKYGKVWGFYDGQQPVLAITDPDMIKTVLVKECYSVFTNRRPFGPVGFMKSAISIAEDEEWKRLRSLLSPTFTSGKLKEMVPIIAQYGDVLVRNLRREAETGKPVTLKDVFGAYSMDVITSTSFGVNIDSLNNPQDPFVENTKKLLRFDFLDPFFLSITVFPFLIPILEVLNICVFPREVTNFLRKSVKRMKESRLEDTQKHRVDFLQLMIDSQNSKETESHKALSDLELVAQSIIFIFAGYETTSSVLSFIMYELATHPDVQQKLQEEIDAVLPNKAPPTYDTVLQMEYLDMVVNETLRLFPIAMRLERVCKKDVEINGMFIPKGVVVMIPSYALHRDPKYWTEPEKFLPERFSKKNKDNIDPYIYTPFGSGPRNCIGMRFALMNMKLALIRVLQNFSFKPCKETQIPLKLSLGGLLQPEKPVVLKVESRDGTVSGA
The target of a further data set is CYP2D6 (Homo sapiens, UniProt P10635). The data set can be described thus: Inhibition of CYP2D6 at 10 uM. The format is ADME.
Chain of CYP2D6 (P10635 whole entry): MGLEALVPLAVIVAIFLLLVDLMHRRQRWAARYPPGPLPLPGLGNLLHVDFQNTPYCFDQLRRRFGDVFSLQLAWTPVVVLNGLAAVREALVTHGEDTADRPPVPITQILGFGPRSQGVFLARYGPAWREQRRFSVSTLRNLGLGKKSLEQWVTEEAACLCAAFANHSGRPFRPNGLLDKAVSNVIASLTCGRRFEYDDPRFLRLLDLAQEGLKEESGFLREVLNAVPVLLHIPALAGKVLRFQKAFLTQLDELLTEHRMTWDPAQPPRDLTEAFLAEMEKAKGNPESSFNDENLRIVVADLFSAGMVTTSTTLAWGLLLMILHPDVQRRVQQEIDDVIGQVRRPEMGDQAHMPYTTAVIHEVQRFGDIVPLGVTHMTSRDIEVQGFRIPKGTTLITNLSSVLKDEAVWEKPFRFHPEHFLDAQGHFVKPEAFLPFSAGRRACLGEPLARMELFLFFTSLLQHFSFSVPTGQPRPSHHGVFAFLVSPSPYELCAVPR
Data set [10] can be described thus: Partition coefficient, log D at pH 7.4. The format is physicochemical. To be noted: octanol/water.
Data set [11] in a line: Intrinsic clearance per 10^6 cells in human hepatocytes. It is filed as ADME, cell-based, Liver, Hepatocyte.
A short description of data set [12]: Intrinsic clearance in human liver microsomes. It is filed as ADME, Microsome.

A word on the Emax: it is the greatest response seen or fitted, relative to the assay's reference. Usually EC50 stands for the midpoint of the concentration-response curve. Usually inhibition stands for the share of the control response that was lost under treatment. A low value points to a weak effect. A word on the logD: it is lipophilicity at a set pH, counting ionised and neutral species. For orientation: hepatocyte CLint means a measure of how fast metabolising enzymes remove a compound, apart from limits set by blood flow. In general, microsomal CLint refers to the rate of metabolic loss divided by the concentration. Read a low microsomal CLint as slow turnover.

Chain of CYP2C19 (P33261 whole entry): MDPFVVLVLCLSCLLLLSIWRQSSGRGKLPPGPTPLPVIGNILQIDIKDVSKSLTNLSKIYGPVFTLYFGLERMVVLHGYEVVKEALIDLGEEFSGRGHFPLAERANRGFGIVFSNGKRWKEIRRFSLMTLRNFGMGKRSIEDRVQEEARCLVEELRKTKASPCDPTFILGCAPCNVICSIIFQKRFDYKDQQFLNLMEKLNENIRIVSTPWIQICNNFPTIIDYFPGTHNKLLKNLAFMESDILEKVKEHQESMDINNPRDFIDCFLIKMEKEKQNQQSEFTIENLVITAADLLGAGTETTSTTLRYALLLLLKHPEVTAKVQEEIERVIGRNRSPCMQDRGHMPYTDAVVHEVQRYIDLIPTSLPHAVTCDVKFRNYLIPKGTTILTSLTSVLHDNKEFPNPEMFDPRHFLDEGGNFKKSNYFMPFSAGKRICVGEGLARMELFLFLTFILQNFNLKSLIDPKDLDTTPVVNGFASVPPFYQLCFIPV

On to `c1cc(-c2ccn[nH]2)c2c(c1)C(c1ncc[nH]1)CC2` (centres undefined), for which the Emax in [1] worked out at 57%; in data set [2], 83%; in data set [3], 32%.

As to `COc1c(C)ccc2c1CCC2c1ncc[nH]1` (centres undefined), the maximal effect (Emax) in data set [4] amounted to 89%; in data set [2], 40%. Also, the EC50 in [5] is > 10000 nM; in data set [6], 167 nM; in [7], > 10000 nM; in [8], 327 nM.

For the molecule `c1cncc(-c2cccc3c2CCC3c2ncc[nH]2)c1` (centres undefined), the Emax in data set [4] was determined as 25%; in [2], 36%. The EC50 in data set [5] was > 10000 nM; in data set [6], 2060 nM; in data set [7] it was > 10000 nM; in [8], 4580 nM.

`c1ccc2c(c1)CCCC2c1ncc[nH]1` (centres undefined): the Emax was 105% in data set [4], 74% in data set [1], 71% in data set [2] and 58% in [3]. In addition, the EC50 in [5] was determined as 791 nM; in data set [6] it was 385 nM; in data set [7], 364 nM; in data set [8] it was 722 nM.

Turning to `Cc1n[nH]cc1-c1cccc2c1CCC2c1ncc[nH]1` (centres undefined), the Emax in data set [1] turned out to be 66%; in data set [2], 91%; in [3], 14%.

On to `CS(=O)(=O)Nc1c(Cl)ccc2c1CCCC2c1ncc[nH]1` (centres undefined), for which the inhibition at 10 µM against CYP2C19, against CYP2C9, on CYP3A4 and on CYP2D6 was < 25% throughout. The 50% effective concentration (EC50) was > 10000 nM in data set [5], 43 nM in data set [6], > 10000 nM in data set [7] and > 10000 nM in [8]. This molecule also yielded an Activity in data set [9] of 0%. For the same molecule, the Emax in [2] came to 61%. Besides, in [10], the logD was 1.5. Besides, the hepatocyte CLint in data set [11] is < 5 µL/min/1e6 cells. The intrinsic clearance (microsomal CLint) in data set [12] was < 7 µL/min/mg.
